According to ChEMBL document CHEMBL5150056, “Synthesis and antibiofilm evaluation of N-acyl-2-aminopyrimidine derivatives against Acinetobacter baumannii” (Bioorg Med Chem, 2022):
pIC50: −log10 of the molar value. ≈ marks a conversion by molar mass, not a printed value. Calls of active or inactive are those of the source. The calls are words filed in the database; no cut-off is given here.

Tests used:
Acinetobacter baumannii [1] = test: Antibacterial activity against Acinetobacter baumannii assessed as planktonic growth inhibition incubated for 18 to 24 hrs by CLSI protocol based assay; assay type: functional; conditions: time 18-24 hrs
[2] = system: Staphylococcus epidermidis; test: Antibiofilm activity against Staphylococcus epidermis ATCC 102555 assessed as inhibition rate of biofilm formation at 200 uM incubated for 18 to 24 hrs by crystal violet staining based assay relative to control; assay type: functional; conditions: time 18-24 hrs
Acinetobacter baumannii [3] = test: Antibiofilm activity against Acinetobacter baumannii 1925052 assessed as inhibition of biofilm formation incubated for 18 to 24 hrs by crystal violet staining based assay; assay type: functional, organism-based
Pseudomonas aeruginosa [4] = test: Antibiofilm activity against Pseudomonas aeruginosa ATCC 27853 assessed as inhibition rate of biofilm formation at 200 uM incubated for 18 to 24 hrs by crystal violet staining based assay relative to control; assay type: functional; conditions: time 18-24 hrs
Acinetobacter baumannii [5] = test: Antibiofilm activity against Acinetobacter baumannii 1780608 assessed as inhibition of biofilm formation incubated for 18 to 24 hrs by crystal violet staining based assay; assay type: functional, organism-based
Acinetobacter baumannii [6] = test: Antibiofilm activity against Acinetobacter baumannii ATCC19606 assessed as inhibition of biofilm formation incubated for 18 to 24 hrs by crystal violet staining based assay; assay type: functional, organism-based
Staphylococcus aureus [7] = test: Antibiofilm activity against Staphylococcus aureus ATCC […] assessed as inhibition rate of biofilm formation at 200 uM incubated for 18 to 24 hrs by crystal violet staining based assay relative to control; assay type: functional; conditions: time 18-24 hrs
Acinetobacter baumannii [8] = test: Antibiofilm activity against Acinetobacter baumannii 1913061 assessed as inhibition of biofilm formation incubated for 18 to 24 hrs by crystal violet staining based assay; assay type: functional, organism-based
Escherichia coli [9] = test: Antibiofilm activity against Escherichia coli Dh5alpha assessed as inhibition rate of biofilm formation at 200 uM incubated for 18 to 24 hrs by crystal violet staining based assay relative to control; assay type: functional; conditions: DH5-alpha, time 18-24 hrs
Acinetobacter baumannii [10] = test: Antibiofilm activity against Acinetobacter baumannii S1 assessed as inhibition of biofilm formation incubated for 18 to 24 hrs by crystal violet staining based assay; assay type: functional, organism-based
Acinetobacter baumannii [11] = test: Antibiofilm activity against Acinetobacter baumannii 1778027 assessed as inhibition rate of biofilm formation at 200 uM incubated for 18 to 24 hrs by crystal violet staining based assay relative to control; assay type: functional; conditions: time 18-24 hrs
3T3-L1 [12] = test: Cytotoxicity against mouse 3T3-L1 cells assessed as reduction in cell viability at 25 uM incubated for 24 hrs by MTT assay relative to control; assay type: toxicity, cell-based; conditions: 3t3-l1, 24 h
Acinetobacter baumannii [13] = test: Synergistic antibacterial activity against Acinetobacter baumannii assessed as fractional inhibitory concentration index incubated for 18 to 24 hrs in the presence of gentamycin sulphate by CLSI protocol based checkerboard assay; assay type: functional; conditions: time 18-24 hrs
Acinetobacter baumannii [14] = test: Antibiofilm activity against Acinetobacter baumannii S1 assessed as inhibition rate of biofilm formation at 100 uM incubated for 18 to 24 hrs by crystal violet staining based assay (reference value: 28.8 +/- 8.21%); assay type: functional; design: scale not given: the % may be the effect or the level left; conditions: time 18-24 hrs
Acinetobacter baumannii [15] = test: Synergistic antibacterial activity against Acinetobacter baumannii assessed as fractional inhibitory concentration index incubated for 18 to 24 hrs in the presence of oxacillin by CLSI protocol based checkerboard assay; assay type: functional; conditions: time 18-24 hrs
Acinetobacter baumannii [16] = test: Synergistic antibacterial activity against Acinetobacter baumannii assessed as planktonic growth inhibition incubated for 18 to 24 hrs in the presence of oxacillin by CLSI protocol based checkerboard assay; assay type: functional; conditions: time 18-24 hrs
3T3-L1 [17] = test: Cytotoxicity against mouse 3T3-L1 cells assessed as reduction in cell viability at 12.5 uM incubated for 24 hrs by MTT assay relative to control; assay type: toxicity, cell-based; conditions: 3t3-l1, 24 h
Acinetobacter baumannii [18] = test: Synergistic antibacterial activity against Acinetobacter baumannii assessed as planktonic growth inhibition incubated for 18 to 24 hrs in the presence of gentamycin sulphate by CLSI protocol based checkerboard assay; assay type: functional; conditions: time 18-24 hrs
3T3-L1 [19] = test: Cytotoxicity against mouse 3T3-L1 cells assessed as reduction in cell viability at 100 uM incubated for 24 hrs by MTT assay relative to control; assay type: toxicity, cell-based; conditions: 3t3-l1, 24 h
Acinetobacter baumannii [20] = test: Antibacterial activity against Acinetobacter baumannii S1 assessed as planktonic growth inhibition incubated for 18 to 24 hrs by CLSI protocol based assay; assay type: functional; conditions: time 18-24 hrs
Acinetobacter baumannii [21] = test: Antibiofilm activity against Acinetobacter baumannii 1778027 assessed as inhibition of biofilm formation incubated for 18 to 24 hrs by crystal violet staining based assay; assay type: functional, organism-based
Acinetobacter baumannii [22] = test: Antibiofilm activity against Acinetobacter baumannii assessed as reduction in biofilm thickness at 100 uM incubated for 24 hrs by Alexa fluor 488 staining based confocal laser microscopic analysis (reference value: 25.91); assay type: functional
Acinetobacter baumannii [23] = test: Antibiofilm activity against Acinetobacter baumannii assessed as reduction in bacterial motility in agar plates by quorum sensing process at 100 uM incubated for 24 hrs; assay type: functional, organism-based
Acinetobacter baumannii [24] = test: Synergistic antibacterial activity against Acinetobacter baumannii assessed as fractional inhibitory concentration index incubated for 18 to 24 hrs in the presence of chloramphenicol by CLSI protocol based checkerboard assay; assay type: functional; conditions: time 18-24 hrs
Acinetobacter baumannii [25] = test: Synergistic antibacterial activity against Acinetobacter baumannii assessed as planktonic growth inhibition incubated for 18 to 24 hrs in the presence of chloramphenicol by CLSI protocol based checkerboard assay; assay type: functional; conditions: time 18-24 hrs
3T3-L1 [26] = test: Cytotoxicity against mouse 3T3-L1 cells assessed as reduction in cell viability at 200 uM incubated for 24 hrs by MTT assay relative to control; assay type: toxicity, cell-based; conditions: 3t3-l1, 24 h
Acinetobacter baumannii [27] = test: Antibiofilm activity against Acinetobacter baumannii assessed as reduction in extracellular polysaccharides at 100 uM incubated for 1 hrs by ELISA analysis; assay type: functional; design: scale not given: the % may be the effect or the level left
3T3-L1 [28] = test: Cytotoxicity against mouse 3T3-L1 cells assessed as reduction in cell viability at 50 uM incubated for 24 hrs by MTT assay relative to control; assay type: toxicity, cell-based; conditions: 3t3-l1, 24 h
Acinetobacter baumannii [29] = test: Antibiofilm activity against Acinetobacter baumannii assessed as reduction in biofilm brightness at 100 uM incubated for 24 hrs by Alexa fluor 488 staining based confocal laser microscopic analysis; assay type: functional, organism-based
[30] = system: Staphylococcus epidermidis; test: Antibiofilm activity against Staphylococcus epidermis ATCC 102555 assessed as inhibition of biofilm formation incubated for 18 to 24 hrs by crystal violet staining based assay; assay type: functional, organism-based
Escherichia coli [31] = test: Antibiofilm activity against Escherichia coli Dh5alpha assessed as inhibition of biofilm formation incubated for 18 to 24 hrs by crystal violet staining based assay; assay type: functional, organism-based; conditions: DH5-alpha
[32] = Cytotoxicity against mouse 3T3-L1 cells assessed as inhibition of cell growth incubated for 24 hrs by MTT assay; assay type: toxicity, cell-based
Pseudomonas aeruginosa [33] = test: Antibiofilm activity against Pseudomonas aeruginosa ATCC 27853 assessed as inhibition of biofilm formation incubated for 18 to 24 hrs by crystal violet staining based assay; assay type: functional, organism-based
Staphylococcus aureus [34] = test: Antibiofilm activity against Staphylococcus aureus ATCC […] assessed as inhibition of biofilm formation incubated for 18 to 24 hrs by crystal violet staining based assay; assay type: functional, organism-based

O=C(N[C@H](CO)[C@H](O)c1ccc([N+](=O)[O-])cc1)C(Cl)Cl [CHLORAMPHENICOL]
MIC (Acinetobacter baumannii [1]): 256 µg/mL (≈ 792 µM)

O=C(Cc1cccc(Br)c1)N[C@H]1CCOC1=O
inhibition at 200 µM [2]: < 50% | pIC50 (Acinetobacter baumannii [3]): 3.71 | inhibition at 200 µM (Pseudomonas aeruginosa [4]): < 50% | pIC50 (Acinetobacter baumannii [5]): 3.92 | pIC50 (Acinetobacter baumannii [6]): 4.07 | inhibition at 200 µM (Staphylococcus aureus [7]): < 50% | pIC50 (Acinetobacter baumannii [8]): 4.64 | inhibition at 200 µM (Escherichia coli [9]): < 50% | pIC50 (Acinetobacter baumannii [10]): 3.84 | inhibition at 200 µM (Acinetobacter baumannii [11]): < 50%

CCCCCCCCCCCCCC(=O)Nc1nc(N)cc(Cl)n1
Activity (3T3-L1 [12]): 100.89% | fractional inhibitory concentration index (FICI) (Acinetobacter baumannii [13]): 0.25 | Activity (Acinetobacter baumannii [14]): 69.9% | inhibition at 200 µM [2]: < 50% | fractional inhibitory concentration index (FICI) (Acinetobacter baumannii [15]): 0.25 | pIC50 (Acinetobacter baumannii [3]): 4.17 | MIC (Acinetobacter baumannii [16]): 128 µg/mL | inhibition at 200 µM (Pseudomonas aeruginosa [4]): < 50% | pIC50 (Acinetobacter baumannii [5]): 4.36 | Activity (3T3-L1 [17]): 99.88% | MIC (Acinetobacter baumannii [18]): 0.125 µg/mL | Activity (3T3-L1 [19]): 100.68% | MIC (Acinetobacter baumannii [20]): > 256 µg/mL | pIC50 (Acinetobacter baumannii [6]): 5.20 | inhibition at 200 µM (Staphylococcus aureus [7]): < 50% | pIC50 (Acinetobacter baumannii [21]): 4.94 | pIC50 (Acinetobacter baumannii [8]): 4.78 | MIC (Acinetobacter baumannii [1]): 256 µg/mL (≈ 721 µM) | Activity (Acinetobacter baumannii [22]): 16.04 | Activity (Acinetobacter baumannii [23]): Active | inhibition at 200 µM (Escherichia coli [9]): < 50% | fractional inhibitory concentration index (FICI) (Acinetobacter baumannii [24]): 0.25 | MIC (Acinetobacter baumannii [25]): 64 µg/mL | Activity (3T3-L1 [26]): 101.81% | pIC50 (Acinetobacter baumannii [10]): 4.41 | Activity (Acinetobacter baumannii [27]): 65% | Activity (3T3-L1 [28]): 100.81%

Cc1onc(-c2ccccc2)c1C(=O)N[C@@H]1C(=O)N2[C@@H]1SC(C)(C)[C@@H]2C(=O)O [OXACILLIN]
MIC (Acinetobacter baumannii [1]): 512 µg/mL (≈ 1280 µM)

CN[C@@H]1[C@@H](O)[C@@H](O[C@@H]2[C@@H](O)[C@H](O[C@H]3O[C@H]([C@@H](C)NC)CC[C@H]3N)[C@@H](N)C[C@H]2N)OC[C@]1(C)O.O=S(=O)(O)O
MIC (Acinetobacter baumannii [1]): 1 µg/mL

O=C(COc1ccccc1)Nc1ncccn1
Activity (Acinetobacter baumannii [14]): 18.2% | MIC (Acinetobacter baumannii [20]): > 256 µg/mL

O=C(Nc1ncccn1)C1CCC1
Activity (Acinetobacter baumannii [14]): 26.8% | MIC (Acinetobacter baumannii [20]): > 256 µg/mL

CCCCCCCCCCCCCC(=O)Nc1nc(Cl)cc(N2CCNCC2)n1
Activity (3T3-L1 [12]): 99.3% | fractional inhibitory concentration index (FICI) (Acinetobacter baumannii [13]): 0.13 | Activity (Acinetobacter baumannii [14]): 70.2% | fractional inhibitory concentration index (FICI) (Acinetobacter baumannii [15]): 0.25 | pIC50 (Acinetobacter baumannii [3]): 5.40 | Activity (Acinetobacter baumannii [29]): Active | MIC (Acinetobacter baumannii [16]): 128 µg/mL | pIC50 [30]: 5.17 | pIC50 (Acinetobacter baumannii [5]): 5.23 | Activity (3T3-L1 [17]): 99.3% | MIC (Acinetobacter baumannii [18]): 0.125 µg/mL | Activity (3T3-L1 [19]): 21.11% | MIC (Acinetobacter baumannii [20]): > 256 µg/mL | pIC50 (Acinetobacter baumannii [6]): 5.35 | pIC50 (Acinetobacter baumannii [21]): 4.32 | pIC50 (Escherichia coli [31]): 5.43 | pIC50 (Acinetobacter baumannii [8]): 5.72 | IC50 at 24 h [32]: 73.6 µM | pIC50 (Pseudomonas aeruginosa [33]): 5.00 | MIC (Acinetobacter baumannii [1]): 256 µg/mL (≈ 604 µM) | Activity (Acinetobacter baumannii [22]): 14.68 | Activity (Acinetobacter baumannii [23]): Active | pIC50 (Staphylococcus aureus [34]): 4.95 | fractional inhibitory concentration index (FICI) (Acinetobacter baumannii [24]): 0.25 | MIC (Acinetobacter baumannii [25]): 64 µg/mL | Activity (3T3-L1 [26]): 20.84% | pIC50 (Acinetobacter baumannii [10]): 4.78 | Activity (Acinetobacter baumannii [27]): 72% | Activity (3T3-L1 [28]): 80.61%

CCCCCCCCCCCC(=O)Nc1ncccn1
Activity (Acinetobacter baumannii [14]): 19.1% | MIC (Acinetobacter baumannii [20]): > 256 µg/mL

O=C(Nc1ncccn1)OCc1ccccc1
Activity (Acinetobacter baumannii [14]): 24.5% | MIC (Acinetobacter baumannii [20]): > 256 µg/mL

O=C(Nc1ncccn1)C(F)(F)C(F)(F)C(F)(F)F
Activity (Acinetobacter baumannii [14]): 19.9% | MIC (Acinetobacter baumannii [20]): > 256 µg/mL

CCCCCCCCCCCCCC(=O)Nc1nccc(Cl)n1
Activity (Acinetobacter baumannii [14]): 44.9% | MIC (Acinetobacter baumannii [20]): > 256 µg/mL
